Laboratory results as given in ChEMBL document CHEMBL5465560, “Selectivity Literature for EUbOPEN Chemogenomic Library” (2024).

Key:
[1] = biological target: Mitogen-activated protein kinase 1 (Homo sapiens, UniProt P28482); test: Selectivity interaction (Millipore kinase profiler) EUB0000124b MAPK1; conditions: at 10 µM
[2] = biological target: cAMP-dependent protein kinase catalytic subunit alpha (Homo sapiens, UniProt P17612); test: Selectivity interaction (KinomeScan (DiscoverX)) EUB0000666a PRKACA; conditions: at 10 µM
SRSF protein kinase 1 = SRSF protein kinase 1 (Homo sapiens, UniProt Q96SB4); test: Selectivity interaction (ActivX KiNativ screen (kinase selectivity in THP-1 cell lysates)) EUB0000639a SRPK1; format: subcellular; conditions: lysate
[3] = biological target: Serine/threonine-protein kinase 24 (Homo sapiens) (UniProt Q9Y6E0); test: Selectivity interaction (ActivX KiNativ screen (kinase selectivity in THP-1 cell lysates)) EUB0000639a STK24; format: subcellular; conditions: lysate, at 0.04 µM
[4] = biological target: Tyrosine-protein kinase Fyn (Homo sapiens) (UniProt P06241); test: Selectivity interaction (Kinase panel (Invitrogen)) EUB0000639a FYN; conditions: at 200 nM
[5] = biological target: T1, Tyrosine-protein kinase ITK/TSK (Homo sapiens) (UniProt Q08881); test: Selectivity interaction (KinomeScan (DiscoverX)) EUB0000618a ITK; conditions: at 10 µM
T1 sequence (whole entry): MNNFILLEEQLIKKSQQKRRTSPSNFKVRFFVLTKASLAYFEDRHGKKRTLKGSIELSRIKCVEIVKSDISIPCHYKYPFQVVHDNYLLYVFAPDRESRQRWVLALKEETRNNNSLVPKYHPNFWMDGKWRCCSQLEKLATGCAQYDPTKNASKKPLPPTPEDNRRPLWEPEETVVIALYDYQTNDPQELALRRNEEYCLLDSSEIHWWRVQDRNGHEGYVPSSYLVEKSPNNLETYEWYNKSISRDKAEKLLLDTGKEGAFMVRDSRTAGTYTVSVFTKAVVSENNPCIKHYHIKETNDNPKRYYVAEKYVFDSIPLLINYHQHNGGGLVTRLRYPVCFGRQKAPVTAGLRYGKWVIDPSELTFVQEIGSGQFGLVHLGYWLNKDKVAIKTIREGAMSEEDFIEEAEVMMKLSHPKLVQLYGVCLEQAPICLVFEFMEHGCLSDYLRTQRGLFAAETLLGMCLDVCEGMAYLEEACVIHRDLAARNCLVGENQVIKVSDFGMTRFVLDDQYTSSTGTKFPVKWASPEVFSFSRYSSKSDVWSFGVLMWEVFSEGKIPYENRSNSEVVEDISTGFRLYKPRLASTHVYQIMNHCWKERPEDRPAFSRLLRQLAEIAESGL

[6] = biological target: SRSF protein kinase 3 (Homo sapiens) (UniProt Q9UPE1); conditions: at 10 µM
[7] = biological target: Tyrosine-protein kinase JAK1 (Homo sapiens, UniProt P23458)
[8] = biological target: T2, Cyclin-dependent kinase 11A (Homo sapiens) (UniProt Q9UQ88); test: Selectivity interaction (KinomeScan (DiscoverX)) EUB0001619a CDK11A; conditions: at 1 µM
T2 sequence (whole entry): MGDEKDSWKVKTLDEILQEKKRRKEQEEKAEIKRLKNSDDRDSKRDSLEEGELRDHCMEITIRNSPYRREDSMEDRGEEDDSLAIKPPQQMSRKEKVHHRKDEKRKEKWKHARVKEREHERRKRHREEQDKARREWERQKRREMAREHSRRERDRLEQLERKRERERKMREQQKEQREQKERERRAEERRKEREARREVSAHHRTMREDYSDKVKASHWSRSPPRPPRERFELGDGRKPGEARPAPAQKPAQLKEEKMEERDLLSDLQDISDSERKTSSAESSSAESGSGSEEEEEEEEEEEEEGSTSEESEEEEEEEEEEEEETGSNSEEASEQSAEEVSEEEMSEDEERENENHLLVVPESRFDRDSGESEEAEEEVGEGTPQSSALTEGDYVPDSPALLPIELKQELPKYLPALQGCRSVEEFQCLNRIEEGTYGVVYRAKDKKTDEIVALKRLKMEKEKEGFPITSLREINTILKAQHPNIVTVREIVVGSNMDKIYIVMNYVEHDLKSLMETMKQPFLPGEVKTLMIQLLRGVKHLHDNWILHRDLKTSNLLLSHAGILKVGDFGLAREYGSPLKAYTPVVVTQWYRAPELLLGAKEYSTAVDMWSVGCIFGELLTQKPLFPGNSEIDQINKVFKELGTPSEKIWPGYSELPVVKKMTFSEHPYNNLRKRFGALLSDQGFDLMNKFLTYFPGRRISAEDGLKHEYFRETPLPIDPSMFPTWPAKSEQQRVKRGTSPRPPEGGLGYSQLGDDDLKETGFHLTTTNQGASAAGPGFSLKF

[9] = biological target: T3, Mitogen-activated protein kinase kinase kinase 3 (Homo sapiens) (UniProt Q99759); test: Selectivity interaction (KinomeScan (DiscoverX)) EUB0000607a MAP3K3; conditions: at 10 µM
T3 sequence (whole entry): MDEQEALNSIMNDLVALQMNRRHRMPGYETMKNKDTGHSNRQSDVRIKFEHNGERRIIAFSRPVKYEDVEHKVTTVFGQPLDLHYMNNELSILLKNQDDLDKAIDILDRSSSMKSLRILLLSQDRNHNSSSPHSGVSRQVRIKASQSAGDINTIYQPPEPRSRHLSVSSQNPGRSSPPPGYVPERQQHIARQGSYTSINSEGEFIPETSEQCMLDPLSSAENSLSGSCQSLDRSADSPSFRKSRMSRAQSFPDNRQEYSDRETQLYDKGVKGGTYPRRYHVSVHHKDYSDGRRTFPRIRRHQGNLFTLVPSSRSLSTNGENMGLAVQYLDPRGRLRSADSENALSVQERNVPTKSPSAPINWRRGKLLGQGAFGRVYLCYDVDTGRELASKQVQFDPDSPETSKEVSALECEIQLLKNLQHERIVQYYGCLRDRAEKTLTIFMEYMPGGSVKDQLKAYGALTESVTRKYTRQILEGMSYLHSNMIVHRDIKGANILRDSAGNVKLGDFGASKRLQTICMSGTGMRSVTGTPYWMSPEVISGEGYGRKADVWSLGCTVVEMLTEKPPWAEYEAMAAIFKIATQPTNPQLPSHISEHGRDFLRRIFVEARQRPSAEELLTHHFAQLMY

[10] = system: Mast/stem cell growth factor receptor Kit (Homo sapiens), P10721 [T670I]; test: (§1) Selectivity interaction (SelectScreen profiling (Invitrogen)) EUB0000607a KIT; conditions: at 2 µM
[11] = biological target: Mast/stem cell growth factor receptor Kit (Homo sapiens, UniProt P10721); test: as §1; conditions: at 2 µM
Sequence of Mast/stem cell growth factor receptor Kit (P10721 whole entry): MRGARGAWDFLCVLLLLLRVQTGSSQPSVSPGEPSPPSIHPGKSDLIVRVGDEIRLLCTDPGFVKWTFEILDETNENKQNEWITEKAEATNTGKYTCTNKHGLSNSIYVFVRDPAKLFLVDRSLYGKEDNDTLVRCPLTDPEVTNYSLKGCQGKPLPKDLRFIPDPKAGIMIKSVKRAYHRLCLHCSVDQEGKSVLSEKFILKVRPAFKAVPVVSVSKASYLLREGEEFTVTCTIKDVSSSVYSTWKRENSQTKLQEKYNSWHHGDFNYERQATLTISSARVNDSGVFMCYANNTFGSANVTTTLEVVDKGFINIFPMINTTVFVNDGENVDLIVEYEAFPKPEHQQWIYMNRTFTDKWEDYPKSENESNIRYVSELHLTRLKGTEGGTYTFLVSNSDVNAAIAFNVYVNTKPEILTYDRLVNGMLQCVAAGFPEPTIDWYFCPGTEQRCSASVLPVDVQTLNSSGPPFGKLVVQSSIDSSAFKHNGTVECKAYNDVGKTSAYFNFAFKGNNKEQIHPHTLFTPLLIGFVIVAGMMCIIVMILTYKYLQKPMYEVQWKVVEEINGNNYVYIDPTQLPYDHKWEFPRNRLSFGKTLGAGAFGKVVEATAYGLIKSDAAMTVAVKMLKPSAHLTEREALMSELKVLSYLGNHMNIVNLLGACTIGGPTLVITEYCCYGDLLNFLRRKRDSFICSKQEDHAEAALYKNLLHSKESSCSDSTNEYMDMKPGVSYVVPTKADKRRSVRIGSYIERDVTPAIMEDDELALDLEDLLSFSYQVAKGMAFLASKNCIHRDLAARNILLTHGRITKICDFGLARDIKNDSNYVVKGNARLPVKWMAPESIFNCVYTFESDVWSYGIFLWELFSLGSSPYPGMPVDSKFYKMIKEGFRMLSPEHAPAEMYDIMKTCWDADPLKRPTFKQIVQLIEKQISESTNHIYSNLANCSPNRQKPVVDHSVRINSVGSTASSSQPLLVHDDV

Sequence of SRSF protein kinase 1 (Q96SB4 whole entry): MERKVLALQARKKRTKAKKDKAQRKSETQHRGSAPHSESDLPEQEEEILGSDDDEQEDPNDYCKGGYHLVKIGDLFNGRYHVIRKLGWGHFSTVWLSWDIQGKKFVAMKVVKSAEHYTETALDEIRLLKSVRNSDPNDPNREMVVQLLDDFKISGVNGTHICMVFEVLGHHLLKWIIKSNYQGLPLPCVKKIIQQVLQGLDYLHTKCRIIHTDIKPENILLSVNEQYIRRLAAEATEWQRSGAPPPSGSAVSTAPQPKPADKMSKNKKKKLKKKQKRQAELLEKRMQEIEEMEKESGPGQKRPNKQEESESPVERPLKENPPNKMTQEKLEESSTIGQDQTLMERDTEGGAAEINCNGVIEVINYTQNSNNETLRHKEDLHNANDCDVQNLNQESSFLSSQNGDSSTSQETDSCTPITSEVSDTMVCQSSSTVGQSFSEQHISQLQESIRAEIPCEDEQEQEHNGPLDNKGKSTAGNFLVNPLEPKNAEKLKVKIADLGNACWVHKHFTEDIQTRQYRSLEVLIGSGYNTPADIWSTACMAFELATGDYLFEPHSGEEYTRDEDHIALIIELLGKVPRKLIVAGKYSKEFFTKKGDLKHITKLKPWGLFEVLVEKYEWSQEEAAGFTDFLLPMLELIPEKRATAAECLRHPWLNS
Sequence of Tyrosine-protein kinase Fyn (Homo sapiens) (P06241 2-537 limits assumed): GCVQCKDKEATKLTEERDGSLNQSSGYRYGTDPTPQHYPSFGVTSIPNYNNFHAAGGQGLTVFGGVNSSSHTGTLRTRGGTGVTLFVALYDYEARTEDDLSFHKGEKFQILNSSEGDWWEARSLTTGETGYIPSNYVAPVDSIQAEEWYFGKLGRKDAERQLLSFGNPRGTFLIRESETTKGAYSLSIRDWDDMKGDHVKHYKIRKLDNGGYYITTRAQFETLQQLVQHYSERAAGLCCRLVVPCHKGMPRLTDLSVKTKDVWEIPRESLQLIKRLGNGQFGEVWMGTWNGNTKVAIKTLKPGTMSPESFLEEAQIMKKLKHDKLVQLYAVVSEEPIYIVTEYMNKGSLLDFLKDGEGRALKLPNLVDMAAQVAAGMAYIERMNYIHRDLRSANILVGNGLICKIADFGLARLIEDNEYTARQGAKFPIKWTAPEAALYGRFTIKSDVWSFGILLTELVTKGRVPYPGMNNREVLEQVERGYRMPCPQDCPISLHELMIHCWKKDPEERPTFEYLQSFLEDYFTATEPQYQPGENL
Sequence of Mitogen-activated protein kinase 1 (P28482 whole entry): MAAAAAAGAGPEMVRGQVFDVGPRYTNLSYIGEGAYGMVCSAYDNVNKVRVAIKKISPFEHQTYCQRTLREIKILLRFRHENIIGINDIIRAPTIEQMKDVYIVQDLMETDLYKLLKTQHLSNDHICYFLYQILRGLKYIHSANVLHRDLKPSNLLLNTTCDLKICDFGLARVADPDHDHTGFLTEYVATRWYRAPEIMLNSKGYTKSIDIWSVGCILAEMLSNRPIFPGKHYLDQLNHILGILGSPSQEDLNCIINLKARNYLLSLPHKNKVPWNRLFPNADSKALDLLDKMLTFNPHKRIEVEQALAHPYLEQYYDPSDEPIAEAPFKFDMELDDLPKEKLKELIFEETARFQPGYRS
Sequence of Tyrosine-protein kinase JAK1 (P23458 whole entry): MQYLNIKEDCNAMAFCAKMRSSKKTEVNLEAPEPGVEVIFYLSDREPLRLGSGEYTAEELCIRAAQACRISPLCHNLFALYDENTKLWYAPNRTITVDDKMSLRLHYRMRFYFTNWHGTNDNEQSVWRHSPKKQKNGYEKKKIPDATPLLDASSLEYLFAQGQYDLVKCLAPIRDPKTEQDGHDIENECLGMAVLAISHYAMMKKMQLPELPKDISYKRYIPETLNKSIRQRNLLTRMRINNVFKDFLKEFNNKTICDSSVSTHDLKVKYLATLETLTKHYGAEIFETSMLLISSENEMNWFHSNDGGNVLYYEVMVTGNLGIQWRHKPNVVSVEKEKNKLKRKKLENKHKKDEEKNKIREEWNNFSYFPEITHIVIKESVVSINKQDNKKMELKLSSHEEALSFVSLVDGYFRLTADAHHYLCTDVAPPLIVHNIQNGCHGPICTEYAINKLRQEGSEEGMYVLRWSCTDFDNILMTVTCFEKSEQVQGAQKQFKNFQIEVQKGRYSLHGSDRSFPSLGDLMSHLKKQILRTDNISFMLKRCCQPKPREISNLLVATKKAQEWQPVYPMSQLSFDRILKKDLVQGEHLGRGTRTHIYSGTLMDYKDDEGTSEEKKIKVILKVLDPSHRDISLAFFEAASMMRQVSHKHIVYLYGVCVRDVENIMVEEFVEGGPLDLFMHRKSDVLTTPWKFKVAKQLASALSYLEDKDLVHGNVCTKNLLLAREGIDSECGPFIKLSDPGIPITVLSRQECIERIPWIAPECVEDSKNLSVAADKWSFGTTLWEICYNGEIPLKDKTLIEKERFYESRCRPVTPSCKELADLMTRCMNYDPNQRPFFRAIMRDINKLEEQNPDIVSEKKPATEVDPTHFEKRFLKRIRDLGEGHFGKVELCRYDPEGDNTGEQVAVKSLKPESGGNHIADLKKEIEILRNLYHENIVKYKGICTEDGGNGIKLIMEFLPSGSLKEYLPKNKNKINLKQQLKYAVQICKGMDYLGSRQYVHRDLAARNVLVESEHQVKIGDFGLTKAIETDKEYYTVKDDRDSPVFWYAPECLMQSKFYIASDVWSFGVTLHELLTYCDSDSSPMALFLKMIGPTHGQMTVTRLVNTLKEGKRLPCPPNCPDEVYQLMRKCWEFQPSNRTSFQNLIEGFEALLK
Sequence of Mast/stem cell growth factor receptor Kit (Homo sapiens), P10721 [T670I] (P10721 whole entry T670I): as the sequence (P10721 whole entry) above, with T670I counted along it
Sequence of SRSF protein kinase 3 (Homo sapiens) (Q9UPE1 whole entry): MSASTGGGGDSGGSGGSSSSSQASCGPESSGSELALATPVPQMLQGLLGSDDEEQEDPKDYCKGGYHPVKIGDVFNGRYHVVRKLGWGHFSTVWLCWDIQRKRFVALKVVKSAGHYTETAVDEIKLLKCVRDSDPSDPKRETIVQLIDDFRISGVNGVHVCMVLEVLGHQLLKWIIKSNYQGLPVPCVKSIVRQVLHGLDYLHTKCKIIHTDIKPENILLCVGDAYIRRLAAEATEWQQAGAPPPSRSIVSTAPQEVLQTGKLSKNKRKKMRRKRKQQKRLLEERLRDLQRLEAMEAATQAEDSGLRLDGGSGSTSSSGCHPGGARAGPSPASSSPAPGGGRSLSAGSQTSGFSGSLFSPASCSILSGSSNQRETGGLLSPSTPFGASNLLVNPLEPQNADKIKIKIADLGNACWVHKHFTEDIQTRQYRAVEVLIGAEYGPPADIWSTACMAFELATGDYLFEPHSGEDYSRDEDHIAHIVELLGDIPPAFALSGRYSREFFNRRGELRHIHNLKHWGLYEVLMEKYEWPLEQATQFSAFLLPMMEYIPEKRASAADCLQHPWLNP
Sequence of Serine/threonine-protein kinase 24 (Homo sapiens) (Q9Y6E0 whole entry, looked up): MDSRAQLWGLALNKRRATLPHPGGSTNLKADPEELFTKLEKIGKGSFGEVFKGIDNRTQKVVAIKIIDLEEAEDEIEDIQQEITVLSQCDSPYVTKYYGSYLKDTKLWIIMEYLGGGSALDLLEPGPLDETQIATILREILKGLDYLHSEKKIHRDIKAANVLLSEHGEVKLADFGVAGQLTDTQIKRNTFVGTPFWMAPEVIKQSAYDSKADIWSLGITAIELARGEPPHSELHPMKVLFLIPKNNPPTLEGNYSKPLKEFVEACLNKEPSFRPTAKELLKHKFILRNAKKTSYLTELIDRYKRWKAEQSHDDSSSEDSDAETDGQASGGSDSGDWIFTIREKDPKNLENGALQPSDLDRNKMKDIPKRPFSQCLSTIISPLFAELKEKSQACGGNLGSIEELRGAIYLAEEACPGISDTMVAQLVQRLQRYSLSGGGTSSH

Question: For `CC(=O)Nc1cccc(-n2c(=O)n(C3CC3)c(=O)c3c(Nc4ccc(I)cc4F)n(C)c(=O)c(C)c32)c1`, which % of control [1] is on record?
Answer: 108%

Question: For `O=C(NOC[C@H](O)CO)c1ccc(F)c(F)c1Nc1ccc(I)cc1F`, which % of control [2] is on record?
Answer: 72%

Question: `CC[C@@H]1[C@H](F)C(=O)N[C@@H]1COc1nccc2cc(C(N)=O)c(OC)cc12` [ZIMLOVISERTIB] was tested. Which % of inhibition (SRSF protein kinase 1; at 0.01 µM) did it give?
Answer: 6.9%

Question: What about the % of inhibition (SRSF protein kinase 1; at 0.04 µM) of the same compound?
Answer: -23%

Question: What about the % of inhibition (SRSF protein kinase 1; at 0.2 µM) of the same compound?
Answer: -5.5%

Question: And the % of inhibition (SRSF protein kinase 1; at 1 µM)?
Answer: 11.7%

Question: What about the % of inhibition (SRSF protein kinase 1; at 5 µM) of the same compound?
Answer: 19.9%

Question: What about the % of inhibition [3] of the same compound?
Answer: 13.3%

Question: What about the % of inhibition [4] of the same compound?
Answer: 16.4%

Question: `O[C@H]1CC[C@H](Nc2ncc3nc(Nc4c(F)cc(F)cc4F)n([C@H]4CCOC4)c3n2)CC1` was tested. Which % of control [5] did it give?
Answer: 100%

Question: `Cc1cc([C@@H](C)Nc2ccccc2C(=O)O)c2nc(N3CCOCC3)cc(=O)n2c1` [AZD-6482] was tested. Which % of control [6] did it give?
Answer: 100%

Question: `CCc1cccc(CC)c1NC(=O)c1nn(C)c2c1CCc1cnc(Nc3ccc(C(=O)NC4CCN(C)CC4)cc3OC(F)(F)F)nc1-2` was tested. Which IC50 [7] did it give?
Answer: > 10 µM

Question: Which % of control [8] does the source give for `N#Cc1cccc(-c2c[nH]c3ncnc(N4CCOCC4)c23)c1` here?
Answer: 48%

Question: `CNC(=O)Nc1ccc(-c2nc(N3CC4CCC(C3)O4)c3cnn(C4CCC5(CC4)OCCO5)c3n2)cc1` was tested. Which % of control [9] did it give?
Answer: 100%

Question: What about the % of inhibition [10] of the same compound?
Answer: 7%

Question: What about the % of inhibition [11] of the same compound?
Answer: 10%
